Results reported in PubChem BioAssay (NCI).
Where “and” joins values, the source holds several entries; their conditions need not be identical. Equal values may be shown once.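 Interpolation was linear, between the two tested concentrations surrounding the appropriate level; five concentrations were tested over 48 hours in 96-well plates. Abbreviation: GI50, concentration required for 50% inhibition of growth. The concentration for full growth arrest is given as TGI.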

Legend:
Test in all cases: inhibition of tumour cell growth, NCI panel, 48 h
[1] = system: DLD-1 colon
[2] = system: DMS 114 small cell lung
[3] = system: KM20L2 colon
[4] = system: LXFL 529 NSCLC
[5] = system: HOP-18 NSCLC
[6] = system: SNB-78 CNS
[7] = system: HS 578T breast
[8] = system: PC-3 prostate
[9] = system: T-47D breast
[10] = system: XF 498 CNS

Row | Structure (SMILES) | TGI [1] | TGI [2] | TGI [3] | TGI [4] | TGI [5] | TGI [6] | GI50 [7] | TGI [7] | GI50 [8] | TGI [8] | GI50 [9] | TGI [9] | TGI [10]
1 | O=C(c1cc2ccccc2[nH]1)C(O)(c1cc2ccccc2[nH]1)c1cc2ccccc2[nH]1 | > 246 µM | > 246 µM | > 246 µM | > 246 µM | – | – | – | – | – | – | – | – | –
2 | O=C(NCCCN1CCN(CCCNC(=O)c2cnc3ccccc3n2)CC1)c1cnc2ccccc2n1 | > 100 µM | > 100 µM | > 100 µM | > 100 µM | > 100 µM | > 100 µM | – | – | – | – | – | – | –
3 | COc1cc2c(cc1OCCCCNC(=O)c1cc3ccccc3[nH]1)N=CC1CCCN1C2=O (stereo not given) | – | – | – | – | – | – | 16.1 µM | 71.5 µM | 22 µM | > 100 µM | 21.7 µM | > 100 µM | –
4 | Nc1nc(N)c2cc(CNc3ccc(Cl)c(Cl)c3)ccc2n1 | – | – | – | – | – | – | 1.34 µM | 3.02 µM | 0.412 µM | 1.89 µM | 1.54 µM | 2.9 µM | –
5 | N/C(=N\O)c1ncc(-c2ccc(C(F)(F)F)cc2)c(NC2CCCCCC2)n1 | – | – | – | – | – | – | 5.67 µM | 23.2 µM | 5.34 µM and 1.92 µM | 12.1 µM | 6.89 µM and 3.59 µM | 16.8 µM | –
6 | Fc1ccc(-c2nc(-c3nc4ccc(Cl)cc4[nH]3)cc3c2[nH]c2ccccc23)cc1 | – | – | – | – | – | – | 3.38 µM | 57 µM | 2.09 µM | 6.95 µM | 2.68 µM | 20.9 µM | –
7 | C=C1CC[C@@H]2C(C)(C)[C@@H](O)CC[C@@]2(C)[C@@H]1COc1ccc2ccc(=O)oc2c1 | – | – | – | – | – | – | 15.4 µM | 49.5 µM | 5.71 µM | 21.8 µM | 5.81 µM | 32.5 µM | –
8 | Cc1ccc(-n2c3c(c4c(CN5CCCCC5)c(O)ccc42)CCc2ccccc2C3=O)cc1 | – | – | – | – | – | – | > 100 µM | > 100 µM | 59.2 µM | > 100 µM | > 100 µM | > 100 µM | –
9 | Cn1cc(-c2csc(-c3c[nH]c4ncccc34)n2)c2cc(Br)cnc21 | – | – | – | – | – | – | 2.43 µM | > 100 µM | 4.35 µM | > 100 µM | 1.8 µM | > 100 µM | –
10 | CC(C)=CC/C=C(/C)[C@H]1CC[C@]2(C)[C@@H]1CC[C@@H]1[C@@]3(C)CCC(=O)NC(C)(C)[C@@H]3CC[C@]12C | – | – | – | – | – | – | 26.3 µM | 94.3 µM | 7.49 µM | 23.9 µM | 19.8 µM | 91 µM | –
11 | CC(C)c1cc(C(C)C)c(S(=O)(=O)NN)c(C(C)C)c1 | > 100 µM | > 100 µM | > 100 µM | – | > 100 µM | > 100 µM | – | – | – | – | – | – | –
12 | COc1ccc(/C=C/c2cc(OC)c(O[Si](C)(C)C(C)(C)C)c(OC)c2)cc1 | > 100 µM | > 100 µM | > 100 µM | > 100 µM | – | – | – | – | – | – | – | – | > 100 µM
13 | COc1ccc2c(c1)C(=O)c1c-2n(CCCN=[N+]=[N-])c(=O)c2ccccc12 | – | – | – | – | – | – | 62.4 µM | > 100 µM | 51.4 µM | > 100 µM | 25.9 µM | > 100 µM | –
14 | Clc1ccc(-c2nc3c(-c4ccc(Cl)cc4)nc(-c4ccccc4)cn3c2-c2ccc(Cl)cc2)cc1 | – | – | – | – | – | – | 10.8 µM | > 50 µM | > 50 µM | > 50 µM | > 50 µM | > 50 µM | –
